In PubChem BioAssay AID248 (DTP/NCI, 2004):
Inconclusive results and toxic doses are left out. No stated cut-off is given here; in the data, active means T/C of 150% or more; inactive means T/C below 125%.

System: L1210 leukemia ip in BDF1 mice, survival T/C
Assay: NCI In Vivo Anticancer Drug Screen. Data for tumor model L1210 Leukemia (intraperitoneal) in B6D2F1 (BDF1) mice
Settings: endpoint: mean survival time, higher = longer survival
Summary of the method: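 Transplantable tumor model; survival measured in treated vs vehicle control mice. Value = treated/control.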

[1] = dose: 100.0 mg/kg/injection, schedule: Q01DX009 (ip), vehicle: saline with Tween-80
[2] = dose: 100.0 mg/kg/injection, schedule: Q04DX002 (ip), vehicle: saline with Tween-80
[3] = dose: 200.0 mg/kg/injection, schedule: Q01DX009 (ip), vehicle: saline with Tween-80
[4] = dose: 200.0 mg/kg/injection, schedule: Q04DX002 (ip), vehicle: saline with Tween-80
[5] = dose: 400.0 mg/kg/injection, schedule: Q01DX009 (ip), vehicle: saline with Tween-80
[6] = dose: 400.0 mg/kg/injection, schedule: Q04DX002 (ip), vehicle: saline with Tween-80
[7] = dose: 12.5 mg/kg/injection, schedule: Q01DX009 (ip), vehicle: saline
[8] = dose: 25.0 mg/kg/injection, schedule: Q01DX009 (ip), vehicle: saline
[9] = dose: 25.0 mg/kg/injection, schedule: Q04DX003 (ip), vehicle: saline
[10] = dose: 50.0 mg/kg/injection, schedule: Q01DX009 (ip), vehicle: saline
[11] = dose: 50.0 mg/kg/injection, schedule: Q04DX003 (ip), vehicle: saline
[12] = dose: 100.0 mg/kg/injection, schedule: Q01DX009 (ip), vehicle: saline
[13] = dose: 100.0 mg/kg/injection, schedule: Q04DX003 (ip), vehicle: saline with Tween-80
[14] = dose: 200.0 mg/kg/injection, schedule: Q04DX003 (ip), vehicle: saline with Tween-80
[15] = dose: 400.0 mg/kg/injection, schedule: Q04DX003 (ip), vehicle: saline with Tween-80
[16] = dose: 100.0 mg/kg/injection, schedule: Q04DX002 (ip), vehicle: saline
[17] = dose: 100.0 mg/kg/injection, schedule: Q01DX001 (ip), vehicle: carboxymethylcellulose (CMC)
[18] = dose: 200.0 mg/kg/injection, schedule: Q01DX009 (ip), vehicle: saline
[19] = dose: 100.0 mg/kg/injection, schedule: Q04DX003 (ip), vehicle: Klucel (hydroxypropylcellulose) (HPC)
[20] = dose: 400.0 mg/kg/injection, schedule: Q01DX009 (ip), vehicle: saline
[21] = dose: 100.0 mg/kg/injection, schedule: Q01DX001 (ip), vehicle: saline
[22] = dose: 200.0 mg/kg/injection, schedule: Q01DX001 (ip), vehicle: saline
[23] = dose: 400.0 mg/kg/injection, schedule: Q01DX001 (ip), vehicle: saline

Measured: T/C

O=C1c2ccccc2C(=O)N1CNc1ccccc1Cl
inactive: [1] 93 % of control | [2] 98 % of control | [3] 93 % of control | [4] 91 % of control | [5] 100 % of control | [6] 88 % of control

CC(=O)N1C(C)C1(c1ccccc1)[n+]1ccccc1 (stereo not drawn)
inactive: dose: 12.0 mg/kg/injection, schedule: Q04DX003 (ip), vehicle: saline 98 % of control | [7] 101 % of control | [8] 92 % of control | [9] 88 % of control | [10] 101 % of control | [11] 104 % of control

CC1([N+](=O)[O-])COC2(CCCCC2)OC1
inactive: dose: 50.0 mg/kg/injection, schedule: Q01DX009 (ip), vehicle: Klucel (hydroxypropylcellulose) (HPC) 100 % of control | dose: 100.0 mg/kg/injection, schedule: Q01DX009 (ip), vehicle: Klucel (hydroxypropylcellulose) (HPC) 96 % of control | dose: 200.0 mg/kg/injection, schedule: Q01DX009 (ip), vehicle: Klucel (hydroxypropylcellulose) (HPC) 91 % of control

Cc1cn(C2CC(F)C(CO)O2)c(=O)[nH]c1=O (stereo not drawn)
inactive: [7] 108 % of control | [8] 102 % of control | [10] 117 % of control | dose: 78.0 mg/kg/injection, schedule: Q01DX009 (ip), vehicle: saline 107 % of control | [12] 121 % of control | dose: 130.0 mg/kg/injection, schedule: Q01DX009 (ip), vehicle: saline 115 % of control | dose: 360.0 mg/kg/injection, schedule: Q01DX009 (ip), vehicle: saline 109 % of control

CCOC(=O)c1cc2sccc2[nH]1
inactive: [13] 100 % of control | [14] 100 % of control | [15] 93 % of control

NC(=S)NNc1ccccn1
inactive: dose: 3.13 mg/kg/injection, schedule: Q01DX009 (ip), vehicle: saline 108 % of control | dose: 6.25 mg/kg/injection, schedule: Q01DX009 (ip), vehicle: saline 96 % of control | [7] 101 % of control | [16] 94 % of control

C/C(=N/N=C(N)N)c1ccc(F)cc1
inactive: dose: 15.0 mg/kg/injection, schedule: Q01DX Z (ip), vehicle: carboxymethylcellulose (CMC) 95 % of control | dose: 15.0 mg/kg/injection, schedule: Q01DX Z (oral), vehicle: carboxymethylcellulose (CMC) 113 % of control | dose: 30.0 mg/kg/injection, schedule: Q01DX Z (ip), vehicle: carboxymethylcellulose (CMC) 100 % of control | dose: 30.0 mg/kg/injection, schedule: Q01DX Z (oral), vehicle: carboxymethylcellulose (CMC) 98 % of control | dose: 60.0 mg/kg/injection, schedule: Q01DX Z (oral), vehicle: carboxymethylcellulose (CMC) 103 % of control

Nc1nc2c(c(=O)[nH]1)CN(C(CCc1ccc(N(CCCl)CCCl)cc1)C(=O)O)CN2 (stereo not drawn)
inactive: dose: 12.5 mg/kg/injection, schedule: Q01DX001 (ip), vehicle: carboxymethylcellulose (CMC) 111 % of control | dose: 25.0 mg/kg/injection, schedule: Q01DX001 (ip), vehicle: carboxymethylcellulose (CMC) 107 % of control | dose: 50.0 mg/kg/injection, schedule: Q01DX001 (ip), vehicle: carboxymethylcellulose (CMC) 113 % of control | dose: 50.0 mg/kg/injection, schedule: Q01DX009 (ip), vehicle: carboxymethylcellulose (CMC) 101 % of control | [17] 111 % of control | dose: 100.0 mg/kg/injection, schedule: Q01DX009 (ip), vehicle: carboxymethylcellulose (CMC) 108 % of control

OC(CCCCC(O)(c1ccccc1)c1ccccc1)(c1ccccc1)c1ccccc1
inactive: [13] 89 % of control | [14] 94 % of control | [15] 96 % of control

CC1(C)COC(Cc2ccccc2)=N1
inactive: [8] 98 % of control | [10] 104 % of control | [11] 96 % of control | [12] 102 % of control | dose: 100.0 mg/kg/injection, schedule: Q04DX003 (ip), vehicle: saline 94 % of control | [18] 101 % of control | dose: 200.0 mg/kg/injection, schedule: Q04DX003 (ip), vehicle: saline 91 % of control

COc1ccc2c(c1)C1C=[S+]c3ccccc3C1N2 (stereo not drawn)
inactive: [7] 101 % of control | dose: 12.5 mg/kg/injection, schedule: Q04DX003 (ip), vehicle: saline 95 % of control | [8] 103 % of control | [9] 92 % of control | [11] 98 % of control

COc1cc(/C=C(/C#N)C(=O)N2CCOCC2)cc(OC)c1OC
inactive: [1] 87 % of control | [2] 90 % of control | [3] 93 % of control | [4] 104 % of control | [5] 93 % of control | [6] 101 % of control

O=C(C[n+]1ccc2c([N+](=O)[O-])cccc2c1)c1ccccc1
inactive: dose: 12.5 mg/kg/injection, schedule: Q04DX003 (ip), vehicle: Klucel (hydroxypropylcellulose) (HPC) 98 % of control | dose: 25.0 mg/kg/injection, schedule: Q04DX003 (ip), vehicle: Klucel (hydroxypropylcellulose) (HPC) 105 % of control | dose: 50.0 mg/kg/injection, schedule: Q04DX003 (ip), vehicle: Klucel (hydroxypropylcellulose) (HPC) 103 % of control | [19] 96 % of control

NCC1OC(OC2C(CO)OC(OC3C(O)C(N)CC(N)C3OC3OC(CO)C(O)CC3N)C2O)C(N)C(O)C1OC1OC(CO)C(O)C(O)C1O (stereo not drawn)
inactive: dose: 100.0 mg/kg/injection, schedule: Q01DX005 (ip), vehicle: saline 96 % of control | [12] 100 % of control | dose: 200.0 mg/kg/injection, schedule: Q01DX005 (ip), vehicle: saline 101 % of control | [18] 110 % of control | dose: 400.0 mg/kg/injection, schedule: Q01DX005 (ip), vehicle: saline 101 % of control | [20] 100 % of control

CC(C)(O)C(O)(c1ccccc1)c1ccccc1
inactive: [21] 103 % of control | [22] 97 % of control | [23] 95 % of control

COC1=C(CNc2ncnc3nc[nH]c23)CC=CC1
inactive: [12] 95 % of control | [18] 97 % of control | [20] 100 % of control

COc1ccc(C(C)(C)CC(=O)O)cc1
inactive: dose: 50.0 mg/kg/injection, schedule: Q01DX009 (ip), vehicle: saline with Tween-80 97 % of control | [1] 100 % of control | [3] 90 % of control

CCN(CC)CCCC(C)Nc1cc(N)nc2nc(-c3ccc(Br)cc3)cnc12 (stereo not drawn)
inactive: dose: 75.0 mg/kg/injection, schedule: Q01DX001 (ip), vehicle: saline 106 % of control | dose: 150.0 mg/kg/injection, schedule: Q01DX001 (ip), vehicle: saline 101 % of control

CCCCCCCCCCCC(=O)NC(=S)Nc1ccc(C(=O)OCC)cc1
inactive: [16] 93 % of control | dose: 200.0 mg/kg/injection, schedule: Q04DX002 (ip), vehicle: saline 108 % of control | dose: 400.0 mg/kg/injection, schedule: Q04DX002 (ip), vehicle: saline 108 % of control

Nc1nc2ccccc2n1C1OC(CO)C(O)C1O (stereo not drawn)
inactive: [21] 101 % of control | [22] 95 % of control | [23] 104 % of control

Clc1ccc(OCOc2ccc(Cl)cc2)cc1
inactive: [19] 106 % of control | dose: 200.0 mg/kg/injection, schedule: Q04DX003 (ip), vehicle: Klucel (hydroxypropylcellulose) (HPC) 98 % of control | dose: 400.0 mg/kg/injection, schedule: Q04DX003 (ip), vehicle: Klucel (hydroxypropylcellulose) (HPC) 92 % of control

Cc1ccc(N=[N+]([O-])c2ccc(C)c(Br)c2)cc1Br
inactive: dose: 100.0 mg/kg/injection, schedule: Q04DX002 (ip), vehicle: Klucel (hydroxypropylcellulose) (HPC) 102 % of control | dose: 200.0 mg/kg/injection, schedule: Q04DX002 (ip), vehicle: Klucel (hydroxypropylcellulose) (HPC) 98 % of control | dose: 400.0 mg/kg/injection, schedule: Q04DX002 (ip), vehicle: Klucel (hydroxypropylcellulose) (HPC) 98 % of control

O=C(Oc1ccccc1[N+](=O)[O-])Oc1ccccc1[N+](=O)[O-]
inactive: [17] 96 % of control | dose: 200.0 mg/kg/injection, schedule: Q01DX001 (ip), vehicle: carboxymethylcellulose (CMC) 93 % of control | dose: 400.0 mg/kg/injection, schedule: Q01DX001 (ip), vehicle: carboxymethylcellulose (CMC) 104 % of control

O=C(O)C1OC1c1ccccc1 (stereo not drawn)
inactive: [12] 107 % of control | [13] 98 % of control | [18] 109 % of control | [14] 98 % of control | [20] 104 % of control | [15] 100 % of control
